By IC50 is commonly meant the concentration that gives 50% inhibition.

Where only a bound is given, the exact number is not on record here.

The target in the first experiment is T1, Human ATX protein (Homo sapiens, UniProt Q13822).
T1 construct: made in house
Description: Autotaxin (ATX) assay, FRET with FS-3 substrate. In kind it is biochemical. The settings on record: greater than 10 μM. The essentials:
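Hydrolysis of the FRET substrate FS-3 (2 μM final) unquenches fluorescein, read at excitation 485 nm and emission 538 nm after 2 h at room temperature, protected from light. Purified human ATX (1.0 μg/mL) and compound were first incubated for 30 min in pH 7.4 Tris/salt buffer containing 1 mg/mL fatty acid-free BSA.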
The compound `CCOC(=O)C1CN(C(=O)OCc2cc(C(F)(F)F)cc(C(F)(F)F)c2)Cc2ccnn21` (stereo not shown) [Example 405] came in with an IC50 of over 10000 nM.

Still in this experiment, the particulars now being: upper bound bins (no greater than 100, 250 or 500 nM); FS-3 2 μM, ATX 1.0 μg/mL.
`CC(C)(C)OC(=O)N1CCN(C(=O)c2cc3n(n2)CCN(C(=O)OCc2cc(C(F)(F)F)cc(C(F)(F)F)c2)C3)C(C)(C)C1` [Example 462] showed an IC50 of at most 100 nM. `O=C(OCc1cc(Cl)cc(Cl)c1)N1CCCn2nc(C(=O)N3CCOCC3)cc2C1` [Example 23, 3,5-Dichlorobenzyl 2-(morpholine-4-carbonyl)-7,8-dihydro-4H-pyrazolo[1,5-a][1,4]diazepine-5(6H)-carboxylate] showed an IC50 of at most 100 nM. The same measure, in the same setting: next, `CCN1CCN(C(=O)c2cc3n(n2)CCCN(C(=O)OCc2cc(C(F)(F)F)cc(C(F)(F)F)c2)C3)C2(CC2)C1` [Example 237]: at most 100 nM; `CC1CC(c2cc3n(n2)CCCN(C(=O)OCc2cc(C(F)(F)F)cc(C(F)(F)F)c2)C3)CC(C)N1` (stereo not shown) [Example 382]: at most 100 nM. On the same count and under the same terms, the value for `O=C(OCc1cc(C(F)(F)F)cc(C(F)(F)F)c1)N1CCn2cc(C(F)(F)F)nc2C1` [Example 127, 3,5-Bis(trifluoromethyl)benzyl 2-(trifluoromethyl)-5,6-dihydroimidazo[1,2-a]pyrazine-7(8H)-carboxylate] was at most 100 nM. Take `O=C(O)c1cc2n(n1)CCCN(C(=O)CCc1cc(C(F)(F)F)cc(C(F)(F)F)c1)C2` [Example 82, 5-(3-(3,5-bis(Trifluoromethyl)phenyl)propanoyl)-5,6,7,8-tetrahydro-4H-pyrazolo[1,5-a][1,4]diazepine-2-carboxylic acid]: the IC50 was at most 100 nM. On the same count and under the same terms, next, `O=C(O)c1cc2n(c1)CCCN(C(=O)OCc1cc(Cl)cc(Cl)c1)C2` [Example 100, 2-(((3,5-Dichlorobenzyl)oxy)carbonyl)-2,3,4,5-tetrahydro-1H-pyrrolo[1,2-a][1,4]diazepine-8-carboxylic acid]: at most 100 nM; `O=C(NC1=NCCS1)c1cc2n(n1)CCCN(C(=O)OCc1cc(C(F)(F)F)cc(C(F)(F)F)c1)C2` [Example 173]: at most 100 nM; `O=C(OCc1cc(Cl)cc(C(F)(F)F)c1)N1CCCn2nc(C(=O)N3CCNC4(CC4)C3)cc2C1` [Example 187]: at most 100 nM.

For the compound `CC1CN(C(=O)c2cc3n(n2)CCN(C(=O)OCc2cc(C(F)(F)F)cc(C(F)(F)F)c2)C3)CCN1` (stereo not shown) [Example 439], the IC50 was at most 100 nM.

As to `O=C(CN1CCOCC1)c1cc2n(n1)CCCN(C(=O)OCc1cc(Cl)cc(C(F)(F)F)c1)C2` [Example 271], the half-inhibitory concentration (IC50) was at most 100 nM. Consider `CCC1(CC)CN(C)CCN1C(=O)c1cc2n(n1)CCCN(C(=O)OCc1cc(Cl)cc(C(F)(F)F)c1)C2` [Example 229], for which the IC50 was at most 100 nM.

For `C[C@H]1CCCN1CC(=O)c1cc2n(n1)CCCN(C(=O)OCc1cc(Cl)cc(C(F)(F)F)c1)C2` [Example 262], the IC50 is at most 100 nM.

In the case of `O=C(OCc1cc(Cl)cc(C(F)(F)F)c1)N1CCCn2nc(C(=O)N3CCC4NCCC43)cc2C1` (stereo not shown) [Example 166], the IC50 is at most 100 nM. Consider `CC1CN(C(=O)OC(C)(C)C)CCN1C(=O)c1cc2n(n1)CCN(C(=O)OCc1cc(C(F)(F)F)cc(C(F)(F)F)c1)C2` (stereo not shown) [Example 464], for which the IC50 was at most 100 nM.

`CN1CCN(C(=O)c2cc3n(n2)CCCN(C(=O)OCc2cc(Cl)cc(C(F)(F)F)c2)C3)C(C(F)(F)F)C1` (stereo not shown) [Example 178] showed an IC50 of at most 100 nM.

The compound `Cc1noc(-c2cc3n(n2)CCCN(C(=O)OCc2cc(C(F)(F)F)cc(C(F)(F)F)c2)C3)n1` [Example 118, 3,5-Bis(trifluoromethyl)benzyl 2-(3-methyl-1,2,4-oxadiazol-5-yl)-7,8-dihydro-4H-pyrazolo[1,5-a][1,4]diazepine-5(6H)-carboxylate] yielded an IC50 of at most 100 nM. The same measure, in the same setting: the value for `O=C(OCc1cc(Cl)cc(C(F)(F)F)c1)N1CCn2c(nnc2C(F)(F)F)C1` [Example 135, 3-Chloro-5-(trifluoromethyl)benzyl 3-(trifluoromethyl)-5,6-dihydro-[1,2,4]triazolo[4,3-a]pyrazine-7(8H)-carboxylate] was at most 500 nM.

The values are drawn from US20160039825A1 (BIOGEN MA INC., priority 2013, published 2016).
